Measured values reported in US7846747B2, “Biocatalytic solgel microarrays” (Rensselaer Polytechnic Institute, priority 2001, dated 2010).

System: MCF7 breast cancer cells

SMILES: O=P1(N(CCCl)CCCl)NCCCO1 (stereo not shown) [cyclophosphamide]
- number of dead cells and ratio of dead to live cells: significant increase in the number of dead cells
